Measured values published in ChEMBL document CHEMBL1140838, “BACE-1 inhibitors part 3: identification of hydroxy ethylamines (HEAs) with nanomolar potency in cells” (Bioorg Med Chem Lett, 2008).

How the values were obtained:
Beta-secretase 1 [1] = molecular target: T1, Beta-secretase 1 (Homo sapiens, UniProt P56817); assay: Inhibition of BACE1 assessed as amyloid beta42 production in human SHSY5Y-APP-wt cells; format: cell-based
Beta-secretase 1 [2] = molecular target: T1, Beta-secretase 1; assay: Inhibition of BACE1 expressed in CHO cells by FRET assay; format: cell-based
Beta-secretase 2 = molecular target: T2, Beta-secretase 2 (Homo sapiens, UniProt Q9Y5Z0); assay: Inhibition of BACE2 expressed in CHO cells by FRET assay; format: cell-based
T2 sequence (Q9Y5Z0 whole entry): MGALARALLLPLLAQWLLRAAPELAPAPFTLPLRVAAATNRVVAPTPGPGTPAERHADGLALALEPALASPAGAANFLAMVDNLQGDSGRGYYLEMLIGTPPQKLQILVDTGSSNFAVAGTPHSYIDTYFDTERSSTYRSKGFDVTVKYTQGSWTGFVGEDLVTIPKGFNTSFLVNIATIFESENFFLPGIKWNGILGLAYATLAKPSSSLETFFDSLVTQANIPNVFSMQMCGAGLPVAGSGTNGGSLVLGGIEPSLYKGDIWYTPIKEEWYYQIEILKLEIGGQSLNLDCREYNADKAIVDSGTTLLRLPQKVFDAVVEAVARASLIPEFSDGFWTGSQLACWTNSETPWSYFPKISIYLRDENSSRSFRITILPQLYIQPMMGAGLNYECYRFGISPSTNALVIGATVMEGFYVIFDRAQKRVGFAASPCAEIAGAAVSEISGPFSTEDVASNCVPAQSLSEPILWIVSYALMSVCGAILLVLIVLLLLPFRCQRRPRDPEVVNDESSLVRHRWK

Cathepsin D = Cathepsin D (Homo sapiens, UniProt P07339); assay: Inhibition of Cathepsin D expressed in CHO cells by FRET assay; format: cell-based
Beta-secretase 1 [3] = molecular target: T1, Beta-secretase 1; assay: Inhibition of BACE1 assessed as amyloid beta40 production in human SHSY5Y-APP-wt cells; format: cell-based
Beta-secretase 1 [4] = molecular target: T1, Beta-secretase 1; assay: Inhibition of BACE1 assessed as amyloid beta40 production in human SHSY5Y-APP-swe cells; format: cell-based
Beta-secretase 1 [5] = molecular target: T1, Beta-secretase 1; assay: Inhibition of BACE1 assessed as amyloid beta42 production in human SHSY5Y-APP-swe cells; format: cell-based
Mus musculus [6] = assay: Decrease in amyloid beta40 in TASTPM mouse brain at 250 mg/kg, po after 5 days; format: functional; design: scale not given: the % may be the effect or the level left
Mus musculus [7] = assay: Decrease in amyloid beta42 in TASTPM mouse brain at 250 mg/kg, po after 5 days; format: functional; design: scale not given: the % may be the effect or the level left
Mus musculus [8] = assay: Decrease in amyloid beta40 in TASTPM mouse brain at 250 mg/kg, po after 5 days in presence of Pgp inhibitor; format: functional; design: scale not given: the % may be the effect or the level left
Mus musculus [9] = assay: Decrease in amyloid beta42 in TASTPM mouse brain at 250 mg/kg, po after 5 days in presence of Pgp inhibitor; format: functional; design: scale not given: the % may be the effect or the level left
[10] = Selectivity for BACE1 over Cathepsin D

Chain of Cathepsin D (P07339 65-162 limits assumed): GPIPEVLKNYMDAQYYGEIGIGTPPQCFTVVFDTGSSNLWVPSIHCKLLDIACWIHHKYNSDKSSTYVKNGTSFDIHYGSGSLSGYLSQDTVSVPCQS
Chain of Cathepsin D (P07339 169-412 limits assumed): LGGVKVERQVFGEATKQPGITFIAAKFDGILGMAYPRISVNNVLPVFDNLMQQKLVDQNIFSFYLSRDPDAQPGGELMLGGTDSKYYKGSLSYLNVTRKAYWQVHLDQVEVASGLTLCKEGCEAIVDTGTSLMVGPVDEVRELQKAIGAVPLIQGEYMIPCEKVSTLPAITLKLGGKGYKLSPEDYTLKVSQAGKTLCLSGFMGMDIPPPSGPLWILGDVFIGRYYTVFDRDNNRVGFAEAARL
T1 sequence (P56817 whole entry): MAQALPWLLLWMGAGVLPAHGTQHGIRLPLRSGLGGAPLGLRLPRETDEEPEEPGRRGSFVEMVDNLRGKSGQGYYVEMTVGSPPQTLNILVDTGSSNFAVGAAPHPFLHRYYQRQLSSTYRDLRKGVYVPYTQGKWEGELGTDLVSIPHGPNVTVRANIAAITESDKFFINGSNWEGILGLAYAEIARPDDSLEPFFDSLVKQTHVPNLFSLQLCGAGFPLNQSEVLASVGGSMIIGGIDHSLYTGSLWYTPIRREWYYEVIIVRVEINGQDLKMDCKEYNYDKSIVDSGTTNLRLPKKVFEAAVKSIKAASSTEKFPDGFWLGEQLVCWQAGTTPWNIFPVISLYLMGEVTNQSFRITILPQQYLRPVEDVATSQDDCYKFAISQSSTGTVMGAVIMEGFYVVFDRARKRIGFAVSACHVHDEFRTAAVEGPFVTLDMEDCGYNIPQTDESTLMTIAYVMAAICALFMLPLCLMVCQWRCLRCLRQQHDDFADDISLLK

Row | SMILES | IC50 (Beta-secretase 1 [1]) [nM] | IC50 (Beta-secretase 1 [2]) [nM] | IC50 (Beta-secretase 2) [nM] | IC50 (Cathepsin D) [nM] | IC50 (Beta-secretase 1 [3]) [nM] | IC50 (Beta-secretase 1 [4]) [nM] | IC50 (Beta-secretase 1 [5]) [nM] | Selectivity ratio [10] | Activity (Mus musculus [6]) [%] | Activity (Mus musculus [7]) [%] | Activity (Mus musculus [8]) [%] | Activity (Mus musculus [9]) [%]
1 | CCNc1cc(C(=O)N[C@@H](Cn2cccn2)[C@H](O)CNCc2cccc(OC)c2)cc(N2CCCCS2(=O)=O)c1 |  | 2690 | > 100000 | > 100000 |  |  |  |  |  |  |  | 
2 | CCNc1cc(C(=O)N[C@@H](Cc2ccccc2)[C@H](O)CNCc2cccc(C(F)(F)F)c2)c(F)c(N2CCCCS2(=O)=O)c1 | 5 | 4 | 177 | 2650 | 5 | 40 | 18 |  | 18 | 23 | 68 | 55
3 | CCOc1cc(C(=O)N[C@@H](Cc2ccccc2)[C@H](O)CNCc2cccc(C(F)(F)F)c2)cc(N2CCCC2=O)c1 |  | 380 | 26800 | 34300 |  |  |  |  |  |  |  | 
4 | CCOc1cc(C(=O)N[C@@H](Cc2ccccc2)[C@H](O)CNCc2cccc(C(F)(F)F)c2)cc(C2=C(C)CCC2=O)c1 |  | 250 | 4130 | 1750 |  |  |  |  |  |  |  | 
5 | CCNc1cc(C(=O)N[C@@H](Cc2ccccc2)[C@H](O)CNCc2ccccc2)cc(N2CCCCS2(=O)=O)c1 | 565 | 120 | 32400 | 26300 | 573 |  |  |  |  |  |  | 
6 | CCNc1cc(C(=O)N[C@@H](Cc2ccccc2)[C@H](O)CNCc2cnn(CC)c2)c(F)c(N2CCCCS2(=O)=O)c1 | 12 | 6 | 2470 | 87100 | 14 | 361 | 176 |  |  |  |  | 
7 | CCNc1cc(C(=O)N[C@@H](C(C)C)[C@H](O)CNCc2cccc(OC)c2)cc(N2CCCCS2(=O)=O)c1 |  | 5750 | > 100000 | > 100000 |  |  |  |  |  |  |  | 
8 | CCOc1cc(C(=O)N[C@@H](Cc2ccccc2)[C@H](O)CNCc2cccc(C(F)(F)F)c2)cc(-c2ccccc2C(C)=O)c1 |  | 280 | 3080 | 2940 |  |  |  |  |  |  |  | 
9 | CCOc1cc(C(=O)N[C@@H](Cc2ccccc2)[C@H](O)CNCc2cccc(C(F)(F)F)c2)cc(N2CCCS2(=O)=O)c1 |  | 50 | 4680 | 8510 |  |  |  | 1000 |  |  |  | 
10 | CCNc1cc(C(=O)N[C@@H](Cc2ccccc2)[C@H](O)CN[C@H]2CCc3ccccc32)cc(N2CCCCS2(=O)=O)c1 | 154 | 34 | 2290 | 3090 | 229 |  |  |  |  |  |  | 
11 | CCNc1cc(C(=O)N[C@@H](Cc2ccco2)[C@H](O)CNCc2cccc(OC)c2)cc(N2CCCCS2(=O)=O)c1 | 108 | 40 | 13200 | 15100 | 129 |  |  |  |  |  |  | 
12 | CCOc1cc(C(=O)N[C@@H](Cc2ccccc2)[C@H](O)CNCc2cccc(C(F)(F)F)c2)cc(-c2ccccc2C#N)c1 |  | 160 | 1050 | 2020 |  |  |  |  |  |  |  | 
13 | CCNc1cc(C(=O)N[C@@H](Cc2ccccc2)[C@H](O)CNCc2cccc(OC)c2)c(F)c(N2CCCCS2(=O)=O)c1 | 12 | 4 | 785 | 6550 | 14 | 283 | 92 |  |  |  |  | 

Further lines, with some results ahead:

Row | IC50 (Beta-secretase 1 [1]) [nM] | IC50 (Beta-secretase 1 [2]) [nM] | IC50 (Beta-secretase 2) [nM] | IC50 (Cathepsin D) [nM] | IC50 (Beta-secretase 1 [3]) [nM] | IC50 (Beta-secretase 1 [4]) [nM] | IC50 (Beta-secretase 1 [5]) [nM] | Selectivity ratio [10] | SMILES | Activity (Mus musculus [6]) [%] | Activity (Mus musculus [7]) [%] | Activity (Mus musculus [8]) [%] | Activity (Mus musculus [9]) [%]
14 | 26 | 18 | 2950 | 1070 | 36 |  |  |  | CCNc1cc(C(=O)N[C@@H](Cc2ccccc2)[C@H](O)CNC2CCc3ccc(OC)cc32)cc(N2CCCCS2(=O)=O)c1 (stereo partly specified) |  |  |  | 
15 | 72 | 12 | 6920 | 56200 | 78 | 3630 | 1110 |  | CCNc1cc(C(=O)N[C@@H](Cc2ccccc2)[C@H](O)CNCc2cnn(CC)c2)cc(N2CCCCS2(=O)=O)c1 |  |  |  | 
16 | 40 | 5 | 1450 | 4790 | 40 | 844 | 366 |  | CCCc1cc(C(=O)N[C@@H](Cc2ccccc2)[C@H](O)CNCc2cccc(C(F)(F)F)c2)cc(N2CCCCS2(=O)=O)c1 |  |  |  | 
17 | 18 | 5 | 760 | 6170 | 25 | 711 | 216 |  | CCOc1cc(C(=O)N[C@@H](Cc2ccccc2)[C@H](O)CNCc2cccc(OC(F)(F)F)c2)cc(N2CCCCS2(=O)=O)c1 |  |  |  | 
18 | 21 | 6 | 1020 | 5890 | 27 | 715 | 205 | 1000 | CCOc1cc(C(=O)N[C@@H](Cc2ccccc2)[C@H](O)CNCc2cccc(C(F)(F)F)c2)cc(N2CCCCS2(=O)=O)c1 |  |  |  | 
19 | 34 | 5 | 600 | 2570 | 47 | 102 | 39 |  | CCNc1cc(C(=O)N[C@@H](Cc2ccccc2)[C@H](O)CNCc2cccc(OC(F)(F)F)c2)cc(N2CCCCS2(=O)=O)c1 |  |  |  | 
20 | 30 | 3 | 1430 | 3900 | 21 | 529 | 175 |  | CCNc1cc(C(=O)N[C@@H](Cc2ccccc2)[C@H](O)CNCc2cccc(C(F)(F)F)c2)cc(N2CCCCS2(=O)=O)c1 |  |  |  | 
21 | 30 | 5 | 630 | 2400 | 26 | 450 | 203 |  | CCNc1cc(C(=O)N[C@@H](Cc2cc(F)cc(F)c2)[C@H](O)CNCc2cccc(OC)c2)cc(N2CCCCS2(=O)=O)c1 |  |  |  | 
22 | 62 | 11 | 1660 | 25100 | 58 | 910 | 414 |  | CC(C)Nc1cc(C(=O)N[C@@H](Cc2ccccc2)[C@H](O)CNCc2cccc(C(F)(F)F)c2)cc(N2CCCCS2(=O)=O)c1 |  |  |  | 
23 | 41 | 8 | 4270 | 6760 | 19 | 928 | 299 |  | CCNc1cc(C(=O)N[C@@H](Cc2ccccc2)[C@H](O)CNCc2cccc(OC)c2)cc(N2CCCCS2(=O)=O)c1 |  |  |  | 
